We go through 30 compounds from patent US10316035B2, “Triazolopyridine inhibitors of myeloperoxidase” (BRISTOL-MYERS SQUIBB COMPANY, priority 2015, dated 2019).

For orientation: IC50 means the concentration that gives 50% inhibition.

The experiment concerns the target T1, myeloperoxidase (MPO) (Homo sapiens, UniProt P05164).
T1 sequence (P05164 49-745): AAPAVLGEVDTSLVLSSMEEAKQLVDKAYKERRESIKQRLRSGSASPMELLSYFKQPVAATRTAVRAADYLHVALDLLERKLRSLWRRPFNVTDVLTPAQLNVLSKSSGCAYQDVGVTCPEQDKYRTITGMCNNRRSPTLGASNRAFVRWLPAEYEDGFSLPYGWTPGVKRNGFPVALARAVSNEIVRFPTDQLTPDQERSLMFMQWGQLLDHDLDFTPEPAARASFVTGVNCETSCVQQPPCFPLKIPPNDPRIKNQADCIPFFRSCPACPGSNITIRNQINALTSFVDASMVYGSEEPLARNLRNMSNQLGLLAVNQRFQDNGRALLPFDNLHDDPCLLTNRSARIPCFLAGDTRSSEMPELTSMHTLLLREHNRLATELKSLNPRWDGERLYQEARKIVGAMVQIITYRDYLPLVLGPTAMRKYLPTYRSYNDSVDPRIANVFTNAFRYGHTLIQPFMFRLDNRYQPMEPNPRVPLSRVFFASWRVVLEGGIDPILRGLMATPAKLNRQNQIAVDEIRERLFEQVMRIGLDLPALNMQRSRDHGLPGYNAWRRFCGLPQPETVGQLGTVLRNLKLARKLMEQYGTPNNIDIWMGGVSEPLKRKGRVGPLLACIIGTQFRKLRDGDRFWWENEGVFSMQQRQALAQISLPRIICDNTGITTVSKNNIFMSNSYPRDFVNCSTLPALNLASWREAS
Briefly: MPO peroxidation assay (Amplex Red assay). Format: biochemical. The conditions noted are these: MPO peroxidation, potency range class; read-out: Amplex Red IC50. Summed up:
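Peroxidase turnover of Amplex Red to fluorescent resorufin (Ex 535/Em 590 nm) was followed for 15 min in 100 mM KPi, pH 7.4, after 10 min room-temperature preincubation of compound with 200 pM enzyme plus 40 nM H2O2. The substrate mix contained 200 μM Amplex Red and 10 mM H2O2. IC50s came from linear-phase rates (180–540 s) fitted with a Hill equation.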
In the case of `COc1cc(-c2ccc(COc3cc(N)nc4[nH]nnc34)c(OC(F)(F)F)c2)c(F)cn1` [Example 309, 7-((4-(5-fluoro-2-methoxypyridin-4-yl)-2-(trifluoromethoxy)benzyl)oxy)-3H-[1,2,3] triazolo[4,5-b]pyridin-5-amine], the IC50 is 1 to 100 nM. On to `COc1ccc(-c2ccc(COc3cc(N)nc4[nH]nnc34)c(C#N)c2)cn1` [Example 310, 2-(((5-amino-3H-[1,2,3]triazolo[4,5-b]pyridin-7-yl)oxy)methyl)-5-(6-methoxypyridin-3-yl)benzonitrile], for which the IC50 lay within 1 to 100 nM. `N#Cc1cc(-c2ccc(N)nc2)ccc1COc1cc(N)nc2[nH]nnc12` [Example 311, 2-(((5-amino-3H-[1,2,3]triazolo[4,5-b]pyridin-7-yl)oxy)methyl)-5-(6-aminopyridin-3-yl)benzonitrile]: the IC50 was in the range of 1 to 100 nM.

In the case of `N#Cc1cc(-c2ccc(O)nc2)ccc1COc1cc(N)nc2[nH]nnc12` [Example 312, 2-(((5-amino-3H-[1,2,3]triazolo[4,5-b]pyridin-7-yl)oxy)methyl)-5-(6-hydroxypyridin-3-yl)benzonitrile], the IC50 lay in the range of 1 to 100 nM.

For the compound `N#Cc1cc(-c2ccc(CO)nc2)ccc1COc1cc(N)nc2[nH]nnc12` [Example 313, 2-(((5-amino-3H-[1,2,3]triazolo[4,5-b]pyridin-7-yl)oxy)methyl)-5-(6-(hydroxymethyl)pyridin-3-yl)benzonitrile], the IC50 lay in the range of 1 to 100 nM. As for `COc1ncc(-c2ccc(COc3cc(N)nc4[nH]nnc34)c(C#N)c2)cn1` [Example 314, 2-(((5-amino-3H-[1,2,3]triazolo[4,5-b]pyridin-7-yl)oxy)methyl)-5-(2-methoxypyrimidin-5-yl)benzonitrile], the 50% inhibitory concentration (IC50) lay in the range of 1 to 100 nM. As to `N#Cc1cc(-c2ccc(C(F)(F)F)nc2)ccc1COc1cc(N)nc2[nH]nnc12` [Example 315, 2-(((5-amino-3H-[1,2,3]triazolo[4,5-b]pyridin-7-yl)oxy)methyl)-5-(6-(trifluoromethyl)pyridin-3-yl)benzonitrile], the IC50 fell in the range of 1 to 100 nM. For `N#Cc1cc(-c2ccc(C3CC3)nc2)ccc1COc1cc(N)nc2[nH]nnc12` [Example 316, 2-(((5-amino-3H-[1,2,3]triazolo[4,5-b]pyridin-7-yl)oxy)methyl)-5-(6-cyclopropylpyridin-3-yl)benzonitrile], the IC50 lay in the range of 1 to 100 nM. For `CN(C)c1ncc(-c2ccc(COc3cc(N)nc4[nH]nnc34)c(C#N)c2)cn1` [Example 317, 2-(((5-amino-3H-[1,2,3]triazolo[4,5-b]pyridin-7-yl)oxy)methyl)-5-(2-(dimethylamino)pyrimidin-5-yl)benzonitrile] the value was 1 to 100 nM; for `CC(=O)N1CCN(c2ccc(-c3ccc(COc4cc(N)nc5[nH]nnc45)c(C#N)c3)cn2)CC1` [Example 318, 5-(6-(4-acetylpiperazin-1-yl)pyridin-3-yl)-2-(((5-amino-3H-[1,2,3]triazolo[4,5-b]pyridin-7-yl)oxy)methyl) benzonitrile], 1 to 100 nM; for `CN1CCN(c2ccc(-c3ccc(COc4cc(N)nc5[nH]nnc45)c(C#N)c3)cn2)CC1` [Example 319, 2-(((5-amino-3H-[1,2,3]triazolo[4,5-b]pyridin-7-yl)oxy)methyl)-5-(6-(4-methylpiperazin-1-yl)pyridin-3-yl)benzonitrile], 1 to 100 nM. Then `N#Cc1cc(-c2ccc(N3CCCCC3)nc2)ccc1COc1cc(N)nc2[nH]nnc12` [Example 320, 2-(((5-amino-3H-[1,2,3]triazolo[4,5-b]pyridin-7-yl)oxy)methyl)-5-(6-(piperidin-1-yl)pyridin-3-yl)benzonitrile], with 101 to 999 nM.

Take `CN1CCN(c2ncc(-c3ccc(COc4cc(N)nc5[nH]nnc45)c(C#N)c3)cn2)CC1` [Example 321, 2-(((5-amino-3H-[1,2,3]triazolo[4,5-b]pyridin-7-yl)oxy)methyl)-5-(2-(4-methylpiperazin-1-yl)pyrimidin-5-yl)benzonitrile]: the IC50 was 1 to 100 nM. Then `CS(=O)(=O)c1cncc(-c2ccc(COc3cc(N)nc4[nH]nnc34)c(C#N)c2)c1` [Example 322, 2-(((5-amino-3H-[1,2,3]triazolo[4,5-b]pyridin-7-yl)oxy)methyl)-5-(5-(methylsulfonyl)pyridin-3-yl)benzonitrile], with 1 to 100 nM; and `COc1ncc(-c2ccc(COc3cc(N)nc4[nH]nnc34)c(C#N)c2)cc1F` [Example 323, 2-(((5-amino-3H-[1,2,3]triazolo[4,5-b]pyridin-7-yl)oxy)methyl)-5-(5-fluoro-6-methoxypyridin-3-yl)benzonitrile], with 1 to 100 nM.

Take `N#Cc1cc(-c2ccc(F)nc2F)ccc1COc1cc(N)nc2[nH]nnc12` [Example 324, 2-(((5-amino-3H-[1,2,3]triazolo[4,5-b]pyridin-7-yl)oxy)methyl)-5-(2,6-difluoropyridin-3-yl)benzonitrile]: the IC50 was in the range of 1 to 100 nM. Take `N#Cc1ccc(-c2ccc(COc3cc(N)nc4[nH]nnc34)c(C#N)c2)cn1` [Example 325, 5-(4-(((5-amino-3H-[1,2,3]triazolo[4,5-b]pyridin-7-yl)oxy)methyl)-3-cyanophenyl) picolinonitrile]: the IC50 is 1 to 100 nM. Take `N#Cc1cc(-c2ccc(N3CCCC3)nc2)ccc1COc1cc(N)nc2[nH]nnc12` [Example 326, 2-(((5-amino-3H-[1,2,3]triazolo[4,5-b]pyridin-7-yl)oxy)methyl)-5-(6-(pyrrolidin-1-yl)pyridin-3-yl)benzonitrile]: the IC50 lay within 1 to 100 nM. As to `N#Cc1cc(-c2ccc(N3CCNCC3)nc2)ccc1COc1cc(N)nc2[nH]nnc12` [Example 327, 2-(((5-amino-3H-[1,2,3]triazolo[4,5-b]pyridin-7-yl)oxy)methyl)-5-(6-(piperazin-1-yl)pyridin-3-yl)benzonitrile], the IC50 lay within 1 to 100 nM. Take `N#Cc1cc(-c2ccc(CN)nc2)ccc1COc1cc(N)nc2[nH]nnc12` [Example 328, 2-(((5-amino-3H-[1,2,3]triazolo[4,5-b]pyridin-7-yl)oxy)methyl)-5-(6-(aminomethyl)pyridin-3-yl)benzonitrile]: the IC50 is 1 to 100 nM. With `N#Cc1cc(-c2cnc(N3CCNCC3)nc2)ccc1COc1cc(N)nc2[nH]nnc12` [Example 329, 2-(((5-amino-3H-[1,2,3]triazolo[4,5-b]pyridin-7-yl)oxy)methyl)-5-(2-(piperazin-1-yl)pyrimidin-5-yl)benzonitrile], the IC50 lay within 1 to 100 nM. As for `N#Cc1cc(-c2ccc(F)nc2)ccc1COc1cc(N)nc2[nH]nnc12` [Example 330, 2-(((5-amino-3H-[1,2,3]triazolo[4,5-b]pyridin-7-yl)oxy)methyl)-5-(6-fluoropyridin-3-yl)benzonitrile], the IC50 was in the range of 1 to 100 nM. As to `COc1ccccc1CNC(=O)c1ccc(COc2cc(N)nc3[nH]nnc23)c(Cl)c1` [Example 331, 4-((5-amino-3H-[1,2,3]triazolo[4,5-b]pyridin-7-yloxy)methyl)-3-chloro-N-(2-methoxybenzyl) benzamide], the IC50 lay within 1 to 100 nM. As to `Nc1cc(OCc2c(F)cc(-c3cccnc3)cc2F)c2nn[nH]c2n1` [Example 332, 7-((2,6-difluoro-4-(pyridin-3-yl)benzyl)oxy)-3H-[1,2,3] triazolo[4,5-b]pyridin-5-amine], the IC50 lay within 1 to 100 nM.

As to `COc1ccc(-c2cc(F)c(COc3cc(N)nc4[nH]nnc34)c(F)c2)cn1` [Example 333, 7-((2,6-difluoro-4-(6-methoxypyridin-3-yl)benzyl)oxy)-3H-[1,2,3]triazolo[4,5-b] pyridin-5-amine], the IC50 fell in the range of 1 to 100 nM.

Consider `Nc1cc(OCc2c(F)cc(-c3ccc(N4CCOCC4)nc3)cc2F)c2nn[nH]c2n1` [Example 335, 7-((2,6-difluoro-4-(6-morpholinopyridin-3-yl)benzyl)oxy)-3H-[1,2,3]triazolo[4,5-b] pyridin-5-amine], for which the IC50 fell in the range of 1 to 100 nM. With `Nc1ccc(-c2cc(F)c(COc3cc(N)nc4[nH]nnc34)c(F)c2)cn1` [Example 337, 7-((4-(6-aminopyridin-3-yl)-2,6-difluorobenzyl)oxy)-3H-[1,2,3]triazolo[4,5-b] pyridin-5-amine], the IC50 was 1 to 100 nM. In the case of `N#Cc1ccc(-c2cc(F)c(COc3cc(N)nc4[nH]nnc34)c(F)c2)cn1` [Example 338, 5-(4-(((5-amino-3H-[1,2,3]triazolo[4,5-b]pyridin-7-yl)oxy)methyl)-3,5-difluorophenyl) picolinonitrile], the IC50 was in the range of 1 to 100 nM. Take `Nc1cc(OCc2c(F)cc(-c3ccc(OCc4ccccc4)nc3)cc2F)c2nn[nH]c2n1` [Example 339, 7-((4-(6-(benzyloxy)pyridin-3-yl)-2,6-difluorobenzyl)oxy)-3H-[1,2,3]triazolo[4,5-b] pyridin-5-amine]: the IC50 was 101 to 999 nM. Regarding `Nc1cc(OCc2c(F)cc(-c3ccc(F)nc3F)cc2F)c2nn[nH]c2n1` [Example 340, 7-((4-(2,6-difluoropyridin-3-yl)-2,6-difluorobenzyl)oxy)-3H-[1,2,3]triazolo[4,5-b]pyridin-5-amine], the IC50 lay in the range of 101 to 999 nM.
